Assay results: patent publication EP4620957A1, “IMIDAZO[4,5-B]PYRIDIN-7-AMINE COMPOUNDS BINDING AURORA KINASE A AND USES THEREOF” (Eberhard Karls Universität Tübingen, priority 2024, dated 2025)

How the values were obtained:
AURKA = target: T1, AURKA (Mus musculus, UniProt P97477); assay: Cellular Thermal Shift Assay (CETSA) in NMP53-/- cells; assay type: cell-based, murine; details: 43.7- 47.9 °C
T1 construct: endogenous in cells; host or cells: NMP53-/- murine hepatocellular carcinoma cells
T1 sequence (P97477 1-395): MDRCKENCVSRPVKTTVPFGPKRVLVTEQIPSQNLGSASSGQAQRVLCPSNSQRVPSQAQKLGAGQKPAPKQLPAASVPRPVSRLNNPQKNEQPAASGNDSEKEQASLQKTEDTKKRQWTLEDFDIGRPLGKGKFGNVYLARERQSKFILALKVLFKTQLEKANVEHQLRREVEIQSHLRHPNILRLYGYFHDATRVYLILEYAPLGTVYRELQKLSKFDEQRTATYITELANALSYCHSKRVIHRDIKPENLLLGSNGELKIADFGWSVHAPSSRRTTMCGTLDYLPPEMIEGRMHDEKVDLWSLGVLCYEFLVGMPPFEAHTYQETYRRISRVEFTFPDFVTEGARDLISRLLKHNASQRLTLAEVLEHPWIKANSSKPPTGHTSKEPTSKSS

NMP19-/- = assay: XTT cell viability assay (growth curves / growth inhibition); assay type: cell-based, murine; details: NMP19-/- cells; at the IC95 concentration of EXAMPLE 3 against NMP53-/- cells; 48h
Experimental: (§1) In brief, cells were seeded in 6-well plates on day 1. On day 2, cells were treated with either EXAMPLE 3 (AURKA Ligand) or with DMSO (control). After 5 days, wells were washed and cells were fixed with 4% PFA and then stained with Crystal Violet solution. Plates were scanned and pictures were saved. (B) Crystal violet colony formation assay of NMP19-/- or NMP53 murine hepatocellular carcinoma cells. In brief, cells were seeded in 6-well plates on day 1. On day 2, cells were treated with MLN8237 (AURKA inhibitor) or with DMSO (control). After 5 days, wells were washed and cells were fixed with 4% PFA and then stained with Crystal Violet solution. Plates were scanned and pictures were saved. (C) AURKA kinase assay with the AURKA ligand EXAMPLE 3. The AURKA kinase assay was performed by Reaction Biology Corp. and it is based on radiometric ATP quantification. Compounds were received as 10 mM stock. […] Afterwards, an XTT cell viability assay was performed, based on the quantification of metabolic activity of alive cells. […] Finally, slides were mounted and analyzed in a fluorescent microscope. Bar graphs represent quantification of abnormal/normal spindles levels of (B) NMP53^-/- and (C) NMP19^-/- mitotic cells at time points after treatment with 15 nM of EXAMPLE 3. […] Subsequently, they were analyzed in a Flow Cytometry device for quantification of the amount of PI in each cell. […]

[1] = tested on: BNL CL.2 (non-transformed murine embryonic liver cell line); assay: as above; assay type: cell-based; details: BNL CL.2 cells; at the IC95 concentration of EXAMPLE 3 against NMP53-/- cells; 48h
Experimental: as §1

TPX2 = assay: Cellular Thermal Shift Assay (CETSA) in NMP53-/- cells; assay type: cell-based, murine; details: 43.7- 47.9 °C

In the case of `Cn1cc(-c2ccc(CNc3ccnc4[nH]c(CCc5ccco5)nc34)cc2)cn1` [Example 3, 2-(2-(furan-2-yl)ethyl)-N-(4-(1-methyl-1H-pyrazol-4-yl)benzyl)-3H-imidazo[4,5-b]pyridin-7-amine], the “thermal stabilization of AURKA (SDS-Page of soluble fraction)” value (AURKA) was “stabilized”, the “growth inhibition in percentage” value (NMP19-/-) was “no significant growth inhibition” and the “growth inhibition in percentage” value [1] was “no significant growth inhibition”. For the same molecule, the “thermal stabilization of TPX2 (SDS-Page of soluble fraction)” value (TPX2) was “stabilized”.
